# Experimental data taken from publication PMC5453931, “Cathelicidin-trypsin inhibitor loop conjugate represents a promising antibiotic candidate with protease stability” (Scientific Reports, 2017).
# Where a SMILES comes first, the peptide text is derived from it. Bridges are numbered along the chain shown (N, C = ends).
# What was measured:
# Vibrio Parahaemolyticus = test: MIC, two-fold broth microdilution; type: cell-based; conditions: Aquatic pathogenic bacteria; two-fold broth microdilution, 37 °C, 18 h; mean of three independent experiments in duplicates
# Summary of the method: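 Peptides were titrated in two-fold steps against exponential-phase inocula (10^6 CFU/mL prior to 1:1 addition) in MH broth. After 18 h incubation at 37 °C with slow shaking, optical density at 595 nm was measured; averaged MICs come from three separate experiments.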
# trypsin = test: Trypsin inhibition assay (NBLAN hydrolysis, Dixon method); type: biochemical; conditions: 50 mM Tris–HCl pH 7.8, trypsin 0.1 mg/mL, 5 min pre-incubation at 37 °C, substrate NBLAN 48, 96, 192 μg/mL, 405 nm
# Summary of the method: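 Trypsin (0.1 mg/mL final) pre-incubated 5 min at 37 °C with hybrid peptide at […] final, in 50 mM Tris–HCl, pH 7.8, at room temperature. Reaction started with NBLAN at 48, 96 or 192 μg/mL final; p-nitroaniline monitored continuously at 405 nm. Ki determined by the Dixon method.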
# E. coli ATCC25922 = test: Salt stability of antimicrobial activity; type: cell-based; conditions: 1 × MIC, Fig. 3A
# Procedure: To determine the effect of salt on the antimicrobial activity of the parental and hybrid peptides, the bacteria colonies survived 1 × MIC of peptide in the presence of salt were counted. Briefly, E. coli ATCC25922 were diluted into decent concentration and mixed with each kind of peptide solution of 1 × MIC supplemented with NaCl (0, 50, 100, 150, 200 and 400 mM), respectively. […] The salt stability of the peptides was assessed by the number of colonies.
# [1] = 20% fresh human serum, 37 °C, colonies surviving 1 × MIC, Fig. 3B
structure (smiles),measurement,setting,value
CC[C@H](C)[C@@H]1NC(=O)[C@H](CO)NC(=O)[C@H](CCCCN)NC(=O)[C@H]([C@@H](C)O)NC(=O)[C@H](Cc2c[nH]c3ccccc23)NC(=O)[C@@H](N)CSSC[C@@H](C(=O)N[C@@H](CCCCN)C(=O)N[C@@H](Cc2ccccc2)C(=O)N[C@@H](Cc2ccccc2)C(=O)N[C@@H](CCCCN)C(=O)N[C@@H](CCCNC(=N)N)C(=O)N[C@@H](Cc2ccccc2)C(=O)N[C@@H](Cc2ccccc2)C(=O)N[C@@H](CCCCN)C(=O)N[C@@H](CO)C(=O)N[C@@H](Cc2ccccc2)C(=O)N[C@@H](CCCNC(=N)N)C(=O)N[C@@H](CCCNC(=N)N)C(=O)N[C@@H](C)C(=O)N[C@@H](Cc2ccccc2)C(=O)N[C@@H](CCCCN)C(=O)N[C@@H](CCCCN)C(=O)N[C@@H](Cc2ccccc2)C(N)=O)NC(=O)[C@@H]2CCCN2C(=O)[C@H](CCCCN)NC(=O)[C@@H]2CCCN2C(=O)[C@@H]2CCCN2C1=O [TIH3F] (H-CWTKSIPPKPCKFFKRFFKSFRRAFKKF-NH2; disulfide 1-11),MIC Vibrio Parahaemolyticus,Vibrio Parahaemolyticus,4.69 µg/mL
same,Ki,trypsin,1500 nM
same,antimicrobial activity (kill %) in presence of salt,"E. coli ATCC25922; 50 mM NaCl, colony counting",not affected
same,kill (%) in presence of salt,E. coli ATCC25922; NaCl increased from 100 mM up to 200 mM,declined by half
same,killing effect in presence of salt,E. coli ATCC25922; NaCl raised from 100 mM to 400 mM,decreased by half
same,kill (%) after incubation with human serum,[1]; 6 h,75%
same,kill (%) / antimicrobial activity kept after incubation with human serum,[1]; 36 h,65%
